Article PMC11458808, “Identification and development of a series of disubstituted piperazines for the treatment of Chagas disease” (European Journal of Medicinal Chemistry, 2022)
In brackets after ≈: the same amount, converted by molar mass.

Assays:
[1] = system: intracellular T. cruzi X10/7 A1 amastigotes; assay: Intracellular T. cruzi assay; type: cell-based, Trypanosoma cruzi; details: for EC50: Trypanosoma cruzi, read-out: T. cruzi (pEC50) (converted); for Activity in the intracellular T. cruzi assay (in words): purified compound
Procedure: 1.1 Intracellular T. cruzi assay: Potency against intracellular T. cruzi X10/7 A1 amastigotes was determined as described previously with as sole modification that the compound treatment duration was increased from 72h to 96h.

[2] = Aqueous (kinetic) solubility by CAD; type: physicochemical; details: kinetic solubility measured by CAD
Procedure: 2.1 Aqueous solubility: This assay was conducted as previously described in [4].

[3] = ChromLogD pH7.4 (chromatographic hydrophobicity index); type: physicochemical; details: pH 7.4, CHIpH7.4 × 0.0857–2; for chromatographic logD: read-out: ChromlogDpH7.4
[4] = Intrinsic clearance in mouse liver microsomes; type: in vitro ADME; details: for Mouse CLi: mouse liver microsomal intrinsic clearance
Procedure: 2.2 Intrinsic clearance: This assay was conducted as previously described in [5].

[5] = potency against intracellular T. cruzi amastigotes, at least three independent replicates, standard deviations ≤0.2

Structure (SMILES) | solubility [2] | chromatographic logD [3] | Mouse CLi [4] | T. cruzi (pEC50) [1, 5] | Clearance (mouse liver microsomal) ([4]; mouse, microsomes) | ChromlogDpH7.4 [3] | EC50 [1, 5] | Activity in the intracellular T. cruzi assay (in words) [1]
COc1ccc(S(=O)(=O)Nc2ccc(CN3CCN(C(=O)c4cccc(C)c4)CC3)cc2)cc1 [Compound 12] | 64 µM (≈ 30.7 µg/mL) | 5.1 |  |  |  |  | 1 µM | 
COc1ccc(S(=O)(=O)Nc2ccc(CN3CCN(C(=O)c4ccc(C)c(Cl)c4)CC3)cc2)cc1 [Compound 15, N-(4-((4-(3-chloro-4-methylbenzoyl)piperazin-1-yl)methyl)phenyl)-4-methoxybenzenesulfonamide] | 13 µM (≈ 6.68 µg/mL) | 5.8 | >50 mL/min/g |  |  |  | 1.26 µM | 
COc1ccc(S(=O)(=O)Nc2ccc(CN3CCN(C(=O)C4CN(C(C)=O)C4)CC3)cc2)cc1 [Compound 21, N-(4-((4-(1-acetylazetidine-3-carbonyl)piperazin-1-yl)methyl)phenyl)-4-methoxybenzenesulfonamide] | ≥ 511 µM | 2.6 | 1.0 mL/min/g |  |  |  | > 50.1 µM | 
Cc1ccc(S(=O)(=O)Nc2ccc(CN3CCN(C(=O)C4CCc5ccccc54)CC3)cc2)cc1 (stereo not drawn) [Compound 24, N-(4-((4-(2,3-dihydro-1H-indene-1-carbonyl)piperazin-1-yl)methyl)phenyl)-4-methylbenzenesulfonamide] | 35 µM (≈ 17.1 µg/mL) | 5.8 | >50 mL/min/g |  |  |  | 3.98 µM | 
COc1ccc(S(=O)(=O)Nc2ccc(OC3CCN(C(=O)c4cccc(Cl)c4)CC3)cc2)cc1 [Compound 28, N-(4-((1-(3-chlorobenzoyl)piperidin-4-yl)oxy)phenyl)-4-methoxybenzenesulfonamide] | < 1 µM | 5.9 | 37 mL/min/g |  |  |  | 5.01 µM | 
O=C(c1cccc(Cl)c1)N1CCN(Cc2ccc(N3CCCCS3(=O)=O)cc2)CC1 [Compound 8, (3-chlorophenyl)(4-(4-(1,1-dioxido-1,2-thiazinan-2-yl)benzyl)piperazin-1-yl)methanone] | ≥ 402 µM | 5.1 | 21 mL/min/g |  |  |  | 25.1 µM | 
COc1ccc(S(=O)(=O)Nc2ccc(CN3CCN(C(=O)c4cc(C(F)(F)F)n[nH]4)CC3)cc2)cc1 [Compound 17, 4-methoxy-N-(4-((4-(5-(trifluoromethyl)-1H-pyrazole-3-carbonyl)piperazin-1-yl)methyl)phenyl)benzenesulfonamide] | 122 µM (≈ 63.9 µg/mL) | 4.9 | 6.4 mL/min/g |  |  |  | 6.31 µM | 
N#Cc1ccc(S(=O)(=O)Nc2ccc(CN3CCN(C(=O)c4cccc(Cl)c4)CC3)cc2)cc1 [Compound 5, N-(4-((4-(3-chlorobenzoyl)piperazin-1-yl)methyl)phenyl)-4-cyanobenzenesulfonamide] | 54 µM (≈ 26.7 µg/mL) | 5.2 | >50 mL/min/g |  |  |  | 7.94 µM | 
O=C(c1cccc(Cl)c1)N1CCN(Cc2ccc(NS(=O)(=O)c3ccccc3)cc2)CC1 [Compound 3, N-(4-((4-(3-chlorobenzoyl)piperazin-1-yl)methyl)phenyl)benzenesulfonamide] | 67 µM (≈ 31.5 µg/mL) | 5.5 | >50 mL/min/g |  |  |  | 1.58 µM | 
COc1ccc(S(=O)(=O)Nc2ccc(CN3CCN(C(=O)c4ccc(OC)c(Cl)c4)CC3)cc2)cc1 [Compound 13, N-[4-[[4-(3-chloro-4-methoxy-benzoyl)piperazin-1-yl]methyl]phenyl]-4-methoxy-benzenesulfonamide] | 18 µM (≈ 9.54 µg/mL) | 5.1 | >50 mL/min/g |  |  |  | 3.16 µM | 
O=C(c1cccc(Cl)c1)N1CCN(Cc2ccc(NS(=O)(=O)c3ccc4c(c3)OCO4)cc2)CC1 [Compound 6, N-(4-((4-(3-chlorobenzoyl)piperazin-1-yl)methyl)phenyl)benzo[d][1,3]dioxole-5-sulfonamide] | 33 µM (≈ 17 µg/mL) | 5.2 | >50 mL/min/g |  |  |  | 0.158 µM | 
COc1ccc(S(=O)(=O)Nc2ccc(CN3CCN(C(=O)C4CC(O)(C(F)(F)F)C4)CC3)cc2)cc1 (stereo not drawn) [Compound 22, N-(4-((4-(3-hydroxy-3-(trifluoromethyl)cyclobutane-1-carbonyl)piperazin-1-yl)methyl)phenyl)-4-methoxybenzenesulfonamide] | ≥ 374 µM | 4.3 | 8.0 mL/min/g |  |  |  | > 50.1 µM | 
COc1ccc(S(=O)(=O)Nc2ccc(CN3CCN(C(=O)Cn4cccnc4=O)CC3)cc2)cc1 [Compound 18, 4-methoxy-N-(4-((4-(2-(2-oxopyrimidin-1(2H)-yl)acetyl)piperazin-1-yl)methyl)phenyl)benzenesulfonamide] | ≥ 336 µM | 2.3 | <0.5 mL/min/g |  |  |  | > 50.1 µM | 

Now from value to molecule, other results behind:

solubility [2] | chromatographic logD [3] | Mouse CLi [4] | T. cruzi (pEC50) [1, 5] | Clearance (mouse liver microsomal) ([4]; mouse, microsomes) | ChromlogDpH7.4 [3] | Structure (SMILES) | EC50 [1, 5] | Activity in the intracellular T. cruzi assay (in words) [1]
≥ 373 µM | 4.5 | 39 mL/min/g |  |  |  | COc1ccc(S(=O)(=O)Nc2ccc(CN3CCN(C(=O)c4cccc(Cl)c4)CC3)nc2)cc1 [Compound 44, N-(6-((4-(3-chlorobenzoyl)piperazin-1-yl)methyl)pyridin-3-yl)-4-methoxybenzenesulfonamide] | 7.94 µM | 
47 µM (≈ 24.1 µg/mL) | 5.1 | >50 mL/min/g |  |  |  | COc1ccc(S(=O)(=O)Nc2ccc(CN3C[C@@H]4C[C@H]3CN4C(=O)c3cccc(Cl)c3)cc2)cc1 [Compound 39, N-(4-(((1S,4S)-5-(3-chlorobenzoyl)-2,5-diazabicyclo[2.2.1]heptan-2-yl)methyl)phenyl)-4-methoxybenzenesulfonamide] | 15.8 µM | 
≥ 414 µM | 2.8 | 1.3 mL/min/g |  |  |  | COc1ccc(S(=O)(=O)Nc2cnc(CN3CCN(C(=O)c4cccc(Cl)c4)CC3)cn2)cc1 [Compound 45, N-(5-((4-(3-chlorobenzoyl)piperazin-1-yl)methyl)pyrazin-2-yl)-4-methoxybenzenesulfonamide] | > 50.1 µM | lacked any activity
≥ 443 µM | 4 | 1.2 mL/min/g |  |  |  | COc1ccc(S(=O)(=O)Nc2ncc(CN3CCN(C(=O)c4cccc(Cl)c4)CC3)nc2OC)cc1 [Compound 46, N-(5-((4-(3-chlorobenzoyl)piperazin-1-yl)methyl)-3-methoxypyrazin-2-yl)-4-methoxybenzenesulfonamide] | > 50.1 µM | lacked any activity
18 µM (≈ 8.71 µg/mL) | 5.6 | 25 mL/min/g |  |  |  | Cc1ccc(S(=O)(=O)Nc2ccc(NC3CCN(C(=O)c4cccc(Cl)c4)CC3)cc2)cc1 [Compound 36, N-(4-((1-(3-chlorobenzoyl)piperidin-4-yl)amino)phenyl)-4-methylbenzenesulfonamide] | 20 µM | 
75 µM (≈ 36.3 µg/mL) | 4.9 | 48 mL/min/g |  |  |  | Cc1ccc(S(=O)(=O)Nc2ccc(CN[C@@H]3CCN(C(=O)c4cccc(Cl)c4)C3)cc2)cc1 [Compound 32, (R)-N-(4-(((1-(3-chlorobenzoyl)pyrrolidin-3-yl)amino)methyl)phenyl)-4-methylbenzenesulfonamide] | 15.8 µM | 
42 µM (≈ 20.9 µg/mL) | 5.3 | 37 mL/min/g |  |  |  | Cc1ccc(S(=O)(=O)Nc2ccc(CN3CCC(NC(=O)c4cccc(Cl)c4)CC3)cc2)cc1 [Compound 37, 3-chloro-N-(1-(4-((4-methylphenyl)sulfonamido)benzyl)piperidin-4-yl)benzamide] | 3.16 µM | 
19 µM (≈ 9.94 µg/mL) |  | 12 mL/min/g | 4.9 | 12 mL/min/g | 5.0 | COc1ccc(S(=O)(=O)Nc2ccc(Cn3cc4c(n3)CN(C(=O)c3cccc(Cl)c3)C4)cc2)cc1 [Compound 29] |  | 
27 µM (≈ 13.4 µg/mL) | 5.7 | >50 mL/min/g |  |  |  | Cc1ccc(S(=O)(=O)Nc2ccc(CN(C)[C@H]3CCN(C(=O)c4cccc(Cl)c4)C3)cc2)cc1 [Compound 33, (S)-N-(4-(((1-(3-chlorobenzoyl)pyrrolidin-3-yl)(methyl)amino)methyl)phenyl)-4-methylbenzenesulfonamide] | 6.31 µM | 
35 µM (≈ 18 µg/mL) | 5.5 | >50 mL/min/g |  |  |  | COc1ccc(S(=O)(=O)Nc2ccc(CCN3CCN(C(=O)c4cccc(Cl)c4)CC3)cc2)cc1 [Compound 40, N-(4-(2-(4-(3-chlorobenzoyl)piperazin-1-yl)ethyl)phenyl)-4-methoxybenzenesulfonamide] | 5.01 µM | 
51 µM (≈ 25.5 µg/mL) | 5.1 | >50 mL/min/g |  |  |  | COc1ccc(S(=O)(=O)Nc2ccc(CN3CC[C@H](NC(=O)c4cccc(Cl)c4)C3)cc2)cc1 [Compound 30, (S)-3-chloro-N-(1-(4-((4-methoxyphenyl)sulfonamido)benzyl)pyrrolidin-3-yl)benzamide] | 50.1 µM | 
28 µM (≈ 13.9 µg/mL) | 5.7 | >50 mL/min/g |  |  |  | Cc1ccc(S(=O)(=O)Nc2ccc(CN(C)C3CCN(C(=O)c4cccc(Cl)c4)C3)cc2)cc1 (stereo in doubt) [Compound 34, (S)-N-(4-(((1-(3-chlorobenzoyl)pyrrolidin-3-yl)(methyl)amino)methyl)phenyl)-4-methylbenzenesulfonamide] | 10 µM | 
